ChEMBL document CHEMBL1151047, “NS 257 (1,2,3,6,7,8-hexahydro-3(hydroxyimino)-N,N,7-trimethyl-2-oxobenzo[2,1-b:3,4-c']dipyrrole-5-sulfonamide) is a potent, systemically active ampa receptor antagonist” (Bioorg Med Chem Lett, 1994)

Key:
[1] = biological target: Glutamate receptor ionotropic, AMPA (Rattus norvegicus, UniProt P19490+P19491+P19492+P19493); test: Binding affinity towards AMPA receptor to rat cortical membrane using [3H]AMPA as radioligand
Mus musculus = test: Ability to block the AMPA-induced convulsant effects in mice upon intracerebroventricular injection; assay type: functional; conditions: central
[2] = biological target: Glutamate receptor ionotropic, NMDA 1 (Rattus norvegicus, UniProt P35439); test: Binding affinity towards glycine binding site of NMDA receptor to rat cortical membrane using [3H]glycine as radioligand
Glutamate NMDA receptor = test: Binding affinity towards glutamate binding site of NMDA receptor to rat cortical membrane using NMDA sensitive [3H]-glutamate as radioligand
[3] = biological target: Glutamate receptor ionotropic, kainate; test: Binding affinity towards kainate receptor to rat cortical membrane using [3H]kainate as radioligand
[4] = Compound was tested for neuronal damage produced by application of 500 uM kainate; assay type: functional
[5] = Inhibitory activity against lactate dehydrogenase release was determined; assay type: functional

Structure (SMILES)	IC50 [1] [µM]	ED50 (Mus musculus) [mg/kg]	IC50 [2] [µM]	IC50 (Glutamate NMDA receptor) [µM]	IC50 [3] [µM]	IC50 [4] [µM]	IC50 [5] [µM]
CN1Cc2c(S(=O)(=O)N(C)C)cc3c(N=O)c(O)[nH]c3c2C1	0.7	10	> 100	44	13	10	9
NS(=O)(=O)c1cccc2c1c([N+](=O)[O-])cc1nc(O)c(O)nc12 [NBQX]	–	10	–	–	–	–	–
